Test results taken from patent US12344610B2, “APOL1 inhibitors and methods of use” (Maze Therapeutics, Inc., priority 2022, dated 2025).

Experiments:
Type in all cases: cell-based
APOL1 G2 = molecular target: T1, APOL1 G2 (Homo sapiens, UniProt O14791, DEL388-389); test: APOL1-mediated calcium transport (calcium influx) assay, HEK T-REx/GCaMP6f/APOL1 G2 K6.3 cells, FLIPR TETRA; settings: prevention of calcium influx; geometric mean of at least 2 assay runs; † = average of a technical replicate from a single assay run
T1 construct: expressed in transfected cells; host or cells: HEK293 T-REx clonal line stably expressing GCaMP6f (HEK T-REx/GCaMP6f/APOL1 G2 K6.3), doxycycline induced
T1 sequence (O14791 with tags, fused parts or gaps DEL388-389): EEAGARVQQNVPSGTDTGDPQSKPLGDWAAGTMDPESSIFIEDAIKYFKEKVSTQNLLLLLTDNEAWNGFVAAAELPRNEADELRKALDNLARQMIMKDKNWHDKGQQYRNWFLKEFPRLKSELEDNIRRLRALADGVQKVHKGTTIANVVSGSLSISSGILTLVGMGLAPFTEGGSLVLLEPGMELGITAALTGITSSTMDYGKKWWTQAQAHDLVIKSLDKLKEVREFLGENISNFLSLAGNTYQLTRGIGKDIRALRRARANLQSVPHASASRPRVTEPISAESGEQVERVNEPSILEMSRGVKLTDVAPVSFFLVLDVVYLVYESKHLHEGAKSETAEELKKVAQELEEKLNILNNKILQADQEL
Description: A HEK293 clonal cell line was generated to stably express GCaMP6f, a genetically encoded calcium indicator, and inducibly express APOL1 G2 (HEK T-REx/GCaMP6f/APOL1 G2 K6.3). Cells were maintained in the following standard complete medium: DMEM with 4.5 g/L glucose and sodium pyruvate (BioWhittaker, Lonza, BE12-614F), supplemented with 10% FBS Performance Plus (Gibco, 16000044), 1% penicillin-streptomycin (BioWhittaker, DE17-602E), 2 mM ultraglutamine-1 (BioWhittaker cat. BE 17-605/U1), 50 μg/mL Zeocin (InvivoGen, ant-zn), 2.5 μg/mL Blasticidin (InvivoGen, ant-bl-5), and 25 μg/mL Hygromycin (InvivoGen, ant-hg). Standard propagation conditions consisted of plating 9×10^6, 4×10^6, 2×10^6 cells in a T225 flasks to be processed after 2, 3, or 4 days, respectively.
A source plate was generated containing 20 serially diluted compounds in DMSO (duplicate 8-point dose response). Next, 0.8 μL of compounds were transferred from the source plate to a destination plate prefilled with 79.2 μL of Ca^2+ free Tyrode's buffer (130 mM NaCl, 5 mM KCl, 1 mM MgCl2, 5 mM NaHCO3, 20 mM HEPES at pH 7.4). The destination plate was placed on a plate shaker (5 seconds at 2000 rpm) to mix. […] All transfer and mixing steps were conducted with an CyBi®-Well dispenser.
Cells were split by gently washing with DPBS (Euroclone, ECB4004L), followed by a 5-minute incubation (humidified, 37° C. with 5% CO2) with trypsin-EDTA solution (Euroclone, ECB3052D). Detached cells were diluted with standard complete medium without selective agents, counted, and plated in a 384 MTP microplate (GR4332CPL, Twin Helix) (10,000 cells/well in 25 μl/well) using a MATRIX WellMate dispenser. Plates were placed into a humidified incubator (37° C. with 5% CO2) overnight. The following day, 20 μL of doxycycline (Sigma, D9891) at 20 ng/mL in standard complete medium was added to cells with a CyBi® Drop dispenser to induce APOL1 G2 expression. After a 6-hour incubation (humidified, 37° C. with 5% CO2), cells were washed 3 times with Ca^2+ free Tyrode's Buffer (130 mM NaCl, 5 mM KCl, 1 mM MgCl2, 5 mM NaHCO3, 20 mM HEPES at pH 7.4) using a BIOTEK Microplate washer, such that 10 μL of buffer remained in each well after the final wash. Assay plates were then stored at room temperature for 10 minutes. Next, 10 μL of diluted compounds were transferred to the assay plate from the 2× compound plate using a CyBi®-Well dispenser. Compound incubation was then carried out at room temperature for 10 minutes. The assay plate was transferred to the FLIPR^TETRA and 20 μL of 10 mM Ca^2+ (final concentration=5 mM) Tyrode's buffer was injected.
Unless otherwise specified, AC50 and values are reported as the geometric mean of at least 2 assay runs on separate days. Each run represents the average of a technical replicate, where each compound was assayed twice in the same plate. A superscript t symbol indicates a value from the average of a technical replicate from a single assay run, where each compound was assayed twice in the same plate.
The AC50 values in Table 39 below reflect the compound's ability to prevent calcium influx by inhibiting APOL1. […] Compounds in Table 39 are referred to by the corresponding Compound Number in Table 1, which is also referred to in the synthetic examples. When one or more of the numbered compounds are identified by stereochemistry (for example, (R)- or (S)-), the specific stereoisomer for which data is provided in Table 39 may be identified by the elution order of such compound as described in the synthetic examples. For example, Compounds 39 and 40 are associated with Step 5 of Example 13, where Compound 39 is the first eluting enantiomer, and Compound 40 is the second eluting enantiomer in the chiral separation of Compound 38. For Table 39 below, n/a represents “not available”.

[1] = test system: HEK293 cells overexpressing APOL1 G2; test: APOL1 G2 HEK293 cell rescue assay (reversal of cell death caused by overexpression of APOL1); settings: Homo sapiens, HEK293, HEK293 overexpressing APOL1 G2; geometric mean of at least 2 assay runs; † = single assay run
Summary of the method: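 Each compound tested in duplicate wells on one plate per run, with values usually the geometric mean across at least two runs on different days, occasionally from one run only. Read-out: concentration giving half-maximal rescue of APOL1 G2 overexpression-induced death of HEK293 cells.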

[2] = test system: HEK293 clonal cell line overexpressing APOL1 G1; test: APOL1 G1 HEK293 cell rescue assay (Example B3); settings: Homo sapiens, HEK293, HEK293 clonal line overexpressing APOL1 G1; geometric mean of at least 2 runs; † = single run; ¥ = concentration at 50% rescue estimated (no sigmoidal curve)
Summary of the method: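 Rescue of cell death caused by APOL1 G1 overexpression was measured in a clonal HEK293 line. Compounds were tested in duplicate on one plate, and EC50s were geometric means across at least two runs on different days. Some values are estimated 50%-rescue concentrations where curve fitting failed.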

Structure (SMILES) | AC50 (APOL1 G2) [nM] | EC50 [1] [nM] | EC50 [2] [nM]
CN1C(=O)C2(CCN(CCOc3ccc4c(c3)CCS4(=O)=O)CC2)c2ccccc21 [Compound 32, 5-(2-{1-methyl-2-oxo-1,2-dihydrospiro[indole-3,4′-piperidin]-1′-yl}ethoxy)-2,3-dihydro-1λ^6-benzothiophene-1,1-dione] | 262 | 785 | 1860
CN1C(=O)Cc2cc(OCCN3CCC4(CC3)C(=O)N(C)c3ccccc34)ccc21 [Compound 33, 1-methyl-1′-{2-[(1-methyl-2-oxo-2,3-dihydro-1H-indol-5-yl)oxy]ethyl}-1,2-dihydrospiro[indole-3,4′-piperidin]-2-one] | 218 | 1070 | > 3470
CN1C(=O)C2(CCN(CCOc3ccc4nccnc4c3)CC2)c2ccccc21 [Compound 34, 1-methyl-1′-[2-(quinoxalin-6-yloxy)ethyl]-1,2-dihydrospiro[indole-3,4′-piperidin]-2-one] | 168 | 1330 | > 1960
CN1C(=O)C2(CCN(CCOc3ccc(N4CCCC4=O)cc3)CC2)c2ccccc21 [Compound 37, 1-methyl-1′-{2-[4-(2-oxopyrrolidin-1-yl)phenoxy]ethyl}-1,2-dihydrospiro[indole-3,4′-piperidin]-2-one] | 327 | 1280 | 692
CC(c1ccc(OCCN2CCC3(CC2)C(=O)Nc2ccc(Cl)cc23)cc1)S(C)(=O)=O (stereo not drawn) [Compound 38, 5-chloro-1′-{2-[4-(1-methanesulfonylethyl)phenoxy]ethyl}-1,2-dihydrospiro[indole-3,4′-piperidin]-2-one] | 307 | 59 | 222
CS(=O)(=O)CCCS(=O)(=O)c1ccc(OCCN2CCC3(CC2)C(=O)Nc2ccc(Cl)cc23)cc1 [Compound 41, 5-chloro-1′-{2-[4-(3-methanesulfonylpropanesulfonyl)phenoxy]ethyl}-1,2-dihydrospiro[indole-3,4′-piperidin]-2-one] | 709 | 97 | 307
NC(=O)c1ccc(OCCN2CCC3(CC2)C(=O)Nc2ccc(Cl)cc23)cn1 [Compound 47, 5-(2-{5-chloro-2-oxo-1,2-dihydrospiro[indole-3,4′-piperidin]-1′-yl}ethoxy)pyridine-2-carboxamide] | 641 | 148 | 399
CS(=O)(=O)c1ccc(OCCN2CCC3(CC2)C(=O)Nc2ccc(Cl)cc23)c(F)c1 [Compound 48, 5-chloro-1′-[2-(2-fluoro-4-methanesulfonylphenoxy)ethyl]-1,2-dihydrospiro[indole-3,4′-piperidin]-2-one] | 567 | 199 | 445
CN(C)C(=O)c1ccc(OCCN2CCC3(CC2)C(=O)Nc2ccc(Cl)cc23)cn1 [Compound 51] | 953 | 214 | 1250
CNC(=O)c1ccc(OCCN2CCC3(CC2)C(=O)Nc2ccc(Cl)cc23)cc1 [Compound 52, 4-(2-{5-chloro-2-oxo-1,2-dihydrospiro[indole-3,4′-piperidin]-1′-yl}ethoxy)-N-methylbenzamide] | 615 | 214 | 1060
CS(=O)(=O)N1Cc2ccc(OCCN3CCC4(CC3)C(=O)Nc3ccc(Cl)cc34)cc2C1 [Compound 54, 5-chloro-1′-{2-[(2-methanesulfonyl-2,3-dihydro-1H-isoindol-5-yl)oxy]ethyl}-1,2-dihydrospiro[indole-3,4′-piperidin]-2-one] | 804 | 90.3 | 386
CN1C(=O)C2(CCN(CCOc3ccc4c(c3)CCN(S(C)(=O)=O)C4)CC2)c2ccccc21 [Compound 55, 1′-{2-[(2-methanesulfonyl-1,2,3,4-tetrahydroisoquinolin-6-yl)oxy]ethyl}-1-methyl-1,2-dihydrospiro[indole-3,4′-piperidin]-2-one] | < 284 | 983 | 1210
CC(=O)N1CCc2cc(OCCN3CCC4(CC3)C(=O)N(C)c3ccccc34)ccc2C1 [Compound 58, 1′-{2-[(2-acetyl-1,2,3,4-tetrahydroisoquinolin-6-yl)oxy]ethyl}-1-methyl-1,2-dihydrospiro[indole-3,4′-piperidin]-2-one] | < 320 | 1310 | 2120
CC(=O)N1CCCc2cc(OCCN3CCC4(CC3)C(=O)Nc3ccc(C#N)cc34)ccc21 [Compound 59, 1′-{2-[(1-acetyl-1,2,3,4-tetrahydroquinolin-6-yl)oxy]ethyl}-2-oxo-1,2-dihydrospiro[indole-3,4′-piperidine]-5-carbonitrile] | 879 | 213 | 422
CNC(=O)N1Cc2ccc(OCCN3CCC4(CC3)C(=O)Nc3ccc(Cl)cc34)cc2C1 [Compound 61, 5-(2-{5-chloro-2-oxo-1,2-dihydrospiro[indole-3,4′-piperidin]-1′-yl}ethoxy)-N-methyl-2,3-dihydro-1H-isoindole-2-carboxamide] | 686 | 267 | 632
CN1C(=O)C2(CCN(CCOc3ccc(S(C)(=O)=O)cc3)CC2)c2ccccc21 [Compound 67, 1′-[2-(4-methanesulfonylphenoxy)ethyl]-1-methyl-1,2-dihydrospiro[indole-3,4′-piperidin]-2-one] | 351 | 802 | 2860
CS(=O)(=O)c1ccc(OCCN2CCC3(CC2)C(=O)Nc2ccccc23)cc1 [Compound 73, 1′-[2-(4-methanesulfonylphenoxy)ethyl]-1,2-dihydrospiro[indole-3,4′-piperidin]-2-one] | 161 | 527 | 3520
CS(=O)(=O)c1ccc(OCCN2CCC3(CC2)C(=O)Nc2ccc(C#N)cc23)cc1F [Compound 74, 1′-[2-(3-fluoro-4-methanesulfonylphenoxy)ethyl]-2-oxo-1,2-dihydrospiro[indole-3,4′-piperidine]-5-carbonitrile] | 781 | 167 | 471
